According to PubChem BioAssay AID248 (DTP/NCI, 2004):
“And” between values parts separate entries of the source, which are not always exact repeats. Equal entries are not always repeated. Inconclusive results and toxic doses are left out. Rule as the data show it: active = T/C of 150% or more; inactive = T/C below 125%.

Tested on: L1210 leukemia ip in BDF1 mice, survival T/C
Assay: NCI In Vivo Anticancer Drug Screen. Data for tumor model L1210 Leukemia (intraperitoneal) in B6D2F1 (BDF1) mice
Details: endpoint: mean survival time, higher = longer survival
Method in brief: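 Transplantable tumor model; survival measured in treated vs vehicle control mice. Value = treated/control.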

[1] = dose: 50.0 mg/kg/injection, schedule: Q01DX009 (ip), vehicle: saline with Tween-80
[2] = dose: 100.0 mg/kg/injection, schedule: Q01DX009 (ip), vehicle: saline with Tween-80
[3] = dose: 200.0 mg/kg/injection, schedule: Q01DX009 (ip), vehicle: saline with Tween-80
[4] = dose: 50.0 mg/kg/injection, schedule: Q04DX002 (ip), vehicle: Klucel (hydroxypropylcellulose) (HPC)
[5] = dose: 100.0 mg/kg/injection, schedule: Q04DX002 (ip), vehicle: Klucel (hydroxypropylcellulose) (HPC)
[6] = dose: 200.0 mg/kg/injection, schedule: Q04DX002 (ip), vehicle: Klucel (hydroxypropylcellulose) (HPC)
[7] = dose: 100.0 mg/kg/injection, schedule: Q04DX003 (ip), vehicle: saline
[8] = dose: 200.0 mg/kg/injection, schedule: Q04DX003 (ip), vehicle: saline
[9] = dose: 400.0 mg/kg/injection, schedule: Q04DX003 (ip), vehicle: saline
[10] = dose: 50.0 mg/kg/injection, schedule: Q01DX009 (ip), vehicle: Klucel (hydroxypropylcellulose) (HPC)
[11] = dose: 100.0 mg/kg/injection, schedule: Q01DX009 (ip), vehicle: saline
[12] = dose: 100.0 mg/kg/injection, schedule: Q01DX001 (ip), vehicle: saline
[13] = dose: 200.0 mg/kg/injection, schedule: Q01DX001 (ip), vehicle: saline
[14] = dose: 400.0 mg/kg/injection, schedule: Q01DX001 (ip), vehicle: saline
[15] = dose: 100.0 mg/kg/injection, schedule: Q04DX003 (ip), vehicle: saline with Tween-80
[16] = dose: 200.0 mg/kg/injection, schedule: Q04DX003 (ip), vehicle: saline with Tween-80
[17] = dose: 100.0 mg/kg/injection, schedule: Q01DX009 (ip), vehicle: Klucel (hydroxypropylcellulose) (HPC)
[18] = dose: 200.0 mg/kg/injection, schedule: Q01DX009 (ip), vehicle: Klucel (hydroxypropylcellulose) (HPC)
[19] = dose: 400.0 mg/kg/injection, schedule: Q01DX009 (ip), vehicle: Klucel (hydroxypropylcellulose) (HPC)
[20] = dose: 400.0 mg/kg/injection, schedule: Q04DX003 (ip), vehicle: saline with Tween-80
[21] = dose: 400.0 mg/kg/injection, schedule: Q01DX009 (ip), vehicle: saline with Tween-80

Measured: T/C

C/C=C/C1CC2CC(C1C)C2(C)C (stereo not given)
inactive: [1] 97 % of control | [2] 97 % of control | [3] 101 % of control

N#CC1CCCC1=O (stereo not given)
inactive: dose: 5.0 mg/kg/injection, schedule: Q01DX009 (ip), vehicle: saline 97 % of control | dose: 10.0 mg/kg/injection, schedule: Q01DX009 (ip), vehicle: saline 101 % of control | dose: 20.0 mg/kg/injection, schedule: Q01DX009 (ip), vehicle: saline 106 % of control

CC(=O)NC1CCc2ccccc21 (stereo not given)
inactive: [4] 102 % of control | [5] 105 % of control | [6] 118 % of control

O=C(NO)c1cc(Cl)c(C(=O)NO)cc1Cl
inactive: dose: 100.0 mg/kg/injection, schedule: Q01DX009 (ip), vehicle: other 93 % of control | [7] 102 % of control | dose: 200.0 mg/kg/injection, schedule: Q01DX009 (ip), vehicle: other 95 % of control | [8] 102 % of control | [9] 97 % of control

C(=N\N(Cc1ccccc1)CN(Cc1ccccc1)/N=C/c1ccccc1)/c1ccccc1
inactive: dose: 100.0 mg/kg/injection, schedule: Q01DX001 (ip), vehicle: other 90 % of control | dose: 200.0 mg/kg/injection, schedule: Q01DX001 (ip), vehicle: other 94 % of control | dose: 400.0 mg/kg/injection, schedule: Q01DX001 (ip), vehicle: other 87 % of control

CC1=Nc2ccccc2NC(C)C1C (stereo not given)
inactive: dose: 12.5 mg/kg/injection, schedule: Q01DX009 (ip), vehicle: Klucel (hydroxypropylcellulose) (HPC) 100 % of control | dose: 25.0 mg/kg/injection, schedule: Q01DX009 (ip), vehicle: Klucel (hydroxypropylcellulose) (HPC) 96 % of control | [10] 108 % of control | [11] 91 % of control

NC(CO)CSCc1ccccc1 (stereo not given)
inactive: dose: 6.25 mg/kg/injection, schedule: Q01DX009 (ip), vehicle: saline 105 % of control | dose: 12.5 mg/kg/injection, schedule: Q01DX009 (ip), vehicle: saline 100 % of control | dose: 25.0 mg/kg/injection, schedule: Q01DX009 (ip), vehicle: saline 110 % of control and 113 % of control | dose: 50.0 mg/kg/injection, schedule: Q01DX009 (ip), vehicle: saline 100 % of control and 102 % of control | [11] 104 % of control

COc1cc(C(O)c2nccc3cc(OC)c(OC)cc23)c([N+](=O)[O-])cc1OC (stereo not given)
inactive: dose: 75.0 mg/kg/injection, schedule: Q01DX001 (ip), vehicle: saline 111 % of control | dose: 150.0 mg/kg/injection, schedule: Q01DX001 (ip), vehicle: saline 106 % of control | dose: 300.0 mg/kg/injection, schedule: Q01DX001 (ip), vehicle: saline 101 % of control

Nc1[nH]c(=O)[nH]c(=O)c1N=Nc1ccc(S(=O)(=O)Nc2nccs2)cc1
inactive: [12] 98 % of control | [13] 100 % of control | [14] 102 % of control

C/C=C1\CN2CCc3c([nH]c4ccccc34)C2CC1CC(=O)N(C)C (stereo not given)
inactive: [15] 96 % of control | [16] 88 % of control

Cc1cc([N+](=O)[O-])c(N/N=C/c2ccccc2Cl)c([N+](=O)[O-])c1
inactive: [17] 101 % of control | [18] 95 % of control | [19] 95 % of control

CCCOP(=O)(CCl)OCCC
inactive: [7] 101 % of control | [8] 104 % of control | [9] 101 % of control

Cc1cc2cccc(CN)c2cc1C
inactive: dose: 100.0 mg/kg/injection, schedule: Q01DX001 (ip), vehicle: Klucel (hydroxypropylcellulose) (HPC) 93 % of control

COc1ccc(NC2=CC(=O)C(=O)c3ccccc32)nn1
inactive: [12] 91 % of control | [13] 89 % of control | [14] 95 % of control

CCn1c(=S)[nH]c(=O)c2n[nH]nc21
inactive: [15] 88 % of control | [16] 89 % of control | [20] 93 % of control

O=C(c1ccccc1)C1Cc2ccccc2C1=O (stereo not given)
inactive: [17] 100 % of control | [7] 102 % of control | [18] 114 % of control | [8] 102 % of control | [19] 97 % of control | [9] 102 % of control

CN1CCCN(CCOC(c2ccccc2)c2ccccc2)CC1
inactive: dose: 55.0 mg/kg/injection, schedule: Q01DX Z (ip), vehicle: methylcellulose (MC) 93 % of control | dose: 83.0 mg/kg/injection, schedule: Q01DX Z (ip), vehicle: methylcellulose (MC) 92 % of control

Nc1nc(N)c(-c2ccc(Cl)c(Cl)c2)c(/C=C/c2ccc(S(=O)(=O)F)cc2)n1
inactive: dose: 100.0 mg/kg/injection, schedule: Q01DX001 (ip), vehicle: saline with Tween-80 87 % of control | dose: 200.0 mg/kg/injection, schedule: Q01DX001 (ip), vehicle: saline with Tween-80 91 % of control | dose: 400.0 mg/kg/injection, schedule: Q01DX001 (ip), vehicle: saline with Tween-80 87 % of control

CC(=O)N(N=O)c1c(C)cccc1C
inactive: dose: 50.0 mg/kg/injection, schedule: Q01DX001 (ip), vehicle: saline 102 % of control | [12] 105 % of control

COc1ccc2ccccc2c1Br
inactive: dose: 100.0 mg/kg/injection, schedule: Q01DX001 (ip), vehicle: carboxymethylcellulose (CMC) 98 % of control | dose: 200.0 mg/kg/injection, schedule: Q01DX001 (ip), vehicle: carboxymethylcellulose (CMC) 98 % of control | dose: 400.0 mg/kg/injection, schedule: Q01DX001 (ip), vehicle: carboxymethylcellulose (CMC) 98 % of control

CCOC(=O)CCN(Cc1ccccc1)CC(C)C(=O)OC (stereo not given)
inactive: [2] 102 % of control | [15] 104 % of control | [3] 97 % of control | [16] 91 % of control | [21] 95 % of control | [20] 96 % of control

CC1(C)OC(N)=C(C(N)=O)C1c1ccc(Cl)cc1 (stereo not given)
inactive: [12] 97 % of control | [13] 95 % of control | [14] 95 % of control

O=[N+]([O-])c1ccc(N/N=C2/C(=C/c3cccc4ccccc34)CCc3ccccc32)c([N+](=O)[O-])c1
inactive: [17] 91 % of control | [18] 89 % of control | [19] 91 % of control

Nc1ccc2nc3ccc(=O)cc-3n(-c3ccccc3)c2c1
inactive: dose: 0.5 mg/kg/injection, schedule: Q01DX Z (ip), vehicle: methylcellulose (MC) 108 % of control | dose: 0.9 mg/kg/injection, schedule: Q01DX Z (ip), vehicle: methylcellulose (MC) 96 % of control and 103 % of control | dose: 1.0 mg/kg/injection, schedule: Q01DX Z (ip), vehicle: methylcellulose (MC) 112 % of control | dose: 1.4 mg/kg/injection, schedule: Q01DX Z (ip), vehicle: methylcellulose (MC) 109 % of control and 110 % of control | dose: 2.0 mg/kg/injection, schedule: Q01DX Z (ip), vehicle: methylcellulose (MC) 116 % of control | dose: 2.1 mg/kg/injection, schedule: Q01DX Z (ip), vehicle: methylcellulose (MC) 107 % of control and 119 % of control | dose: 3.2 mg/kg/injection, schedule: Q01DX Z (ip), vehicle: methylcellulose (MC) 105 % of control and 122 % of control | dose: 5.0 mg/kg/injection, schedule: Q01DX001 (ip), vehicle: carboxymethylcellulose (CMC) 96 % of control | dose: 10.0 mg/kg/injection, schedule: Q01DX001 (ip), vehicle: carboxymethylcellulose (CMC) 105 % of control | dose: 20.0 mg/kg/injection, schedule: Q01DX001 (ip), vehicle: carboxymethylcellulose (CMC) 111 % of control | dose: 40.0 mg/kg/injection, schedule: Q01DX001 (ip), vehicle: carboxymethylcellulose (CMC) 113 % of control

Nc1nc(N)c(N=Nc2ccc(SCC(=O)O)cc2)c(=O)[nH]1
inactive: [12] 93 % of control | [13] 98 % of control | [14] 96 % of control

OCC(O)C(O)CO (stereo not given) (tested in a mixture with another compound)
inactive: [4] 104 % of control | [5] 95 % of control | [6] 98 % of control

Cc1cc([N+](=O)[O-])ccn1
inactive: [2] 94 % of control | [3] 93 % of control

O=c1[nH]c2ccc([N+](=O)[O-])cc2c2nc3ccccc3n12
inactive: [10] 95 % of control | [17] 101 % of control | [18] 95 % of control

COc1ccc(OC(=O)CCCl)cc1
inactive: [1] 98 % of control | dose: 50.0 mg/kg/injection, schedule: Q04DX003 (ip), vehicle: saline with Tween-80 104 % of control | [2] 104 % of control | [15] 95 % of control | [3] 105 % of control | [16] 95 % of control | [21] 121 % of control | [20] 104 % of control
